Values of other authors in US20030060663A1, “Novel therapeutic agents for macromolecular structures” (priority 1998, published 2003).
Read-outs that look alike come from different tables or passages of the source.

Experiments:
[1] = test system: mitotic microtubules; settings: intact tectal plates from mouse embryos; blockade of cells at metaphase
[2] = test system: axonal microtubules; settings: intact tectal plates from mouse embryos
[3] = animal models
[4] = clinical trials
[5] = test system: HRV-9; settings: against HRV-9
[6] = test system: fungal pathogens; settings: on average; for MIC values, fold higher than amphotericin B: range of fungal pathogens
[7] = test system: coxsackievirus A21; settings: p.o. administration, patients challenged with coxsackievirus A21
[8] = test system: HRV (human rhinovirus)-16, 39, and 50; settings: administered orally to patients infected with HRV-16, 39, and 50
[9] = test system: yeasts; settings: relative to amphotericin B
[10] = test system: Microsporum, Epidermophyton and Trichophyton; settings: various species of Microsporum

## CC[C@]1(O)C[C@H]2CN(CCc3c([nH]c4ccccc34)[C@@](C(=O)OC)(c3cc4c(cc3OC)N(C=O)[C@H]3[C@@](O)(C(=O)OC)[C@H](OC(C)=O)[C@]5(CC)C=CCN6CC[C@]43[C@@H]65)C2)C1 [vincristine, Vincristine]
[1]
  concentration at which mitotic microtubule formation is inhibited: 2 mcM
[2]
  concentration producing depolymerization of axonal microtubules: 5 mcM

## COC(=O)C1C(O)CC2(O)CC(O)CC(O)C(O)CCC(O)CC(O)CC(=O)OC(C)C(C)C(O)C(C)C=CC=CC=CC=CC=CC=CC=CC(OC3OC(C)C(O)C(NC(=O)C(N)CCCN)C3O)CC1O2 (centres unmarked) [N-ornithyl amphotericin B methyl ester]
[3]
  nephrotoxicity compared with amphotericin B: less nephrotoxic

## COC(=O)[C@H]1[C@@H]2C[C@@H](O[C@@H]3O[C@H](C)[C@@H](O)[C@H](N)[C@@H]3O)/C=C/C=C/C=C/C=C/C=C/C=C/C=C/[C@H](C)[C@@H](O)[C@@H](C)[C@H](C)OC(=O)C[C@H](O)C[C@H](O)CC[C@@H](O)[C@H](O)C[C@H](O)C[C@](O)(C[C@@H]1O)O2 [Amphotericin B methyl ester]
[3]
  nephrotoxicity compared with amphotericin B: less nephrotoxic
[4]
  nephrotoxicity compared with amphotericin B: less nephrotoxic

## COc1ccc(N2CCN(c3cccc(C)c3)CC2)nn1 [compound C]
[5]
  prophylactic use: worked prophylactically

## COC12CC(O)CC(O)C(O)CCC(O)CC(O)CC(=O)OC(C)C(C)C(O)C(C)C=CC=CC=CC=CC=CC=CC=CC(OC3OC(C)C(O)C(N)C3O)CC(O1)C(C(=O)O)C(O)C2 (centres unmarked) [methoxy ketal]
[6]
  MIC values, fold higher than amphotericin B: 2 fold

## CCC1=C[C@@H]2CN(C1)Cc1c([nH]c3ccccc13)[C@@](C(=O)OC)(c1cc3c(cc1OC)N(C)[C@H]1[C@@](O)(C(=O)OC)[C@H](OC(C)=O)[C@]4(CC)C=CCN5CC[C@]31[C@@H]54)C2 [vinorelbine, 3′,4′-Didehydro-4′-deoxy-C′-norvincaleukoblastine]
[1]
  concentration at which mitotic microtubule formation is inhibited: 2 mcM
[2]
  concentration producing depolymerization of axonal microtubules: 40 mcM

## CCCOC12CC(O)CC(O)C(O)CCC(O)CC(O)CC(=O)OC(C)C(C)C(O)C(C)C=CC=CC=CC=CC=CC=CC=CC(OC3OC(C)C(O)C(N)C3O)CC(O1)C(C(=O)O)C(O)C2 (centres unmarked) [n-propyloxy ketal]
[6]
  fold less potent in vitro: 10 fold

## Cc1cc(CCCCCOc2c(Cl)cc(C3N=CCO3)cc2Cl)on1 (centres unmarked) [Compound A]
[7]
  prophylactic effect in clinical trials: prophylactic effect
[8]
  therapeutic effect: did not demonstrate a therapeutic effect

## monovalent adduct of amphotericin B with N,N′-1,6-hexandiyl-bis(maleimide)
[9]
  MIC values against yeasts, fold higher than amphotericin B: more than 20 fold

## CC1C=CC=CC=CC=CC=CC=CC=CC(OC2OC(C)C(O)C(N)C2O)CC2OC(OCCO)(CC(O)CC(O)C(O)CCC(O)CC(O)CC(=O)OC(C)C(C)C1O)CC(O)C2C(=O)O (stereo not drawn) [beta-hydroxyethoxy ketal]
[6]
  MIC values, fold higher than amphotericin B: 2 fold

## COC1=CC(=O)C[C@@H](C)[C@]12Oc1c(Cl)c(OC)cc(OC)c1C2=O [Griseofulvin]
[10]
  in vitro activity against fungi: fungistatic

## CC[C@]1(O)C[C@@H]2CN(CCc3c([nH]c4ccccc34)[C@@](C(=O)OC)(c3cc4c(cc3OC)N(C)[C@H]3[C@@](O)(C(=O)OC)[C@H](OC(C)=O)[C@]5(CC)C=CCN6CC[C@]43[C@@H]65)C2)C1 [vinblastine]
[1]
  concentration at which mitotic microtubule formation is inhibited: 2 mcM
[2]
  concentration producing depolymerization of axonal microtubules: 30 mcM
